Consider 8 molecules from patent US20200354426A1 (MEDIMMUNE LIMITED, priority 2016, published 2020).

Numbered stars: 1 amine (or outer) side, 2 acyl side, 3 side chain; on linkers, the order of the positions; unused ones are H or OH. Side chains are listed from the residue outwards. Peptide text beside a SMILES is read from it. * marks the point of attachment. γGlu = O=C(O)[C@H](CCC(=O)[*:2])N[*:1]; Palmitoyl = CCCCCCCCCCCCCCCC(=O)*; Ahx = NCCCCCC(=O)O

Holding throughout (assay): cAMP activity assay in assay medium (assay 1)
Common to all, as to format: cell-based

Assay [1] has as its target T1, Human GIPr (Homo sapiens, UniProt P48546).
T1 construct: expressed in transfected cells
T1 sequence (P48546 22-466): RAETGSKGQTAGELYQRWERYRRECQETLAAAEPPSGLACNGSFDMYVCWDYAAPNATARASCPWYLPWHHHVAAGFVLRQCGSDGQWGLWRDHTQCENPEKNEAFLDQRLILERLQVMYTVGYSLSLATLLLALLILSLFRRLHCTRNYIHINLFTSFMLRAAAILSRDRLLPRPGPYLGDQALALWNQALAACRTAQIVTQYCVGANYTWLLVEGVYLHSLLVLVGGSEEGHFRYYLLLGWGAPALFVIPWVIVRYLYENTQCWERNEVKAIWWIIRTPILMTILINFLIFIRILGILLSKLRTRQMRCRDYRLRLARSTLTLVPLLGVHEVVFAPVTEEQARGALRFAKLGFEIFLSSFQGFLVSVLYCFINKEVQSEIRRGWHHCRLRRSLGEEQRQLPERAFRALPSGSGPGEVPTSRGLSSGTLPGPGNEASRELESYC
The following applies: assay medium; Table 4; read-out: hGIPR EC50. An excerpt:
(§1) Biological Activity of Peptides in Cell-Based cAMP Activity Assay (Assay 1):
(§2) All sample dilutions were made in duplicate.

Assay [2] concerns the target T2, Human GlucR (Homo sapiens, UniProt P47871).
T2 construct: expressed in transfected cells
The following applies: assay medium; Table 4; read-out: hGlucR EC50.
Description: as §1, §2

For assay [3], the target named is Human GLP1R (Homo sapiens, UniProt P43220). On the set-up: expressed in transfected cells. The following applies: assay medium; Table 4; read-out: hGLP1R EC50.
Description: as §1, §2

Chain of Human GLP1R (P43220 24-463): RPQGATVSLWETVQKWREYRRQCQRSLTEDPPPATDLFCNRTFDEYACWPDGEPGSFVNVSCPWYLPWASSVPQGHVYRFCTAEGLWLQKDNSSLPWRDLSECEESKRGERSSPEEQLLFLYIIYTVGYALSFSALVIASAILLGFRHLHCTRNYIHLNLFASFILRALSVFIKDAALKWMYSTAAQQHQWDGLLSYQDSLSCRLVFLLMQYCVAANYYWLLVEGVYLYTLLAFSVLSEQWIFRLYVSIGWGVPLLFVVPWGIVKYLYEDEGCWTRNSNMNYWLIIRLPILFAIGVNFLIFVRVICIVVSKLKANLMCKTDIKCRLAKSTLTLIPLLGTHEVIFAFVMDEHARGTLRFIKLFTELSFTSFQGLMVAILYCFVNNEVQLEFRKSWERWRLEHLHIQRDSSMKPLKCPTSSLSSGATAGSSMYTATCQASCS
T2 sequence (P47871 26-477): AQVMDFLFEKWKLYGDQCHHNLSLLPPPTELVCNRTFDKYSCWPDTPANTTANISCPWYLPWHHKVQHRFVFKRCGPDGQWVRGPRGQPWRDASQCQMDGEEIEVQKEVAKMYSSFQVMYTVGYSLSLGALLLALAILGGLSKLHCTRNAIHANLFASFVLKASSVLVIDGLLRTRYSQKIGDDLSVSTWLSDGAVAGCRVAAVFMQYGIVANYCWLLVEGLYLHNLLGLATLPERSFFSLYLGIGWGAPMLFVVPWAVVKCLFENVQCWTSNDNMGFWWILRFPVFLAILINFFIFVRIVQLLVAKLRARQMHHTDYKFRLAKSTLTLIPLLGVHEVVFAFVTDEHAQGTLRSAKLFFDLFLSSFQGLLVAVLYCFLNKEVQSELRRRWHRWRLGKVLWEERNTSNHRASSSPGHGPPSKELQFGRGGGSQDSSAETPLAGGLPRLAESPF

In the case of `CCCCCCCCCCCCCCCC(=O)N[C@@H](CCC(=O)NCCCC[C@H](NC(=O)[C@H](CC(=O)O)NC(=O)[C@H](CO)NC(=O)[C@@H](NC(=O)[C@H](Cc1ccccc1)NC(=O)[C@@H](NC(=O)CNC(=O)[C@H](CCC(N)=O)NC(=O)[C@H](CO)NC(=O)[C@@H](N)Cc1c[nH]cn1)[C@@H](C)O)[C@@H](C)O)C(=O)N[C@@H](CO)C(=O)N[C@@H](CCCCN)C(=O)N[C@@H](Cc1ccc(O)cc1)C(=O)N[C@@H](CC(C)C)C(=O)N[C@@H](CC(=O)O)C(=O)N[C@@H](CO)C(=O)N[C@@H](CCCNC(=N)N)C(=O)N[C@@H](CCCNC(=N)N)C(=O)N[C@@H](C)C(=O)N[C@@H](CCC(N)=O)C(=O)N[C@@H](CC(=O)O)C(=O)N[C@@H](Cc1ccccc1)C(=O)N[C@H](C(=O)N[C@@H](CCC(N)=O)C(=O)N[C@@H](Cc1c[nH]c2ccccc12)C(=O)N[C@@H](CC(C)C)C(=O)N[C@H](C(=O)N[C@@H](C)C(=O)NCC(=O)NCC(N)=O)C(C)C)C(C)C)C(=O)O` [g715] (H-HSQGTFTSDK([γGlu-Palmitoyl])SKYLDSRRAQDFVQWLVAGG-NH2; N-terminus assumed), the EC50 (usually the concentration needed to bring the measured effect to its halfway point) is 0.998 nM in assay [1], 0.00253 nM in assay [2] and 0.0204 nM in assay [3].

Take `CCCCCCCCCCCCCCCC(=O)N[C@@H](CCC(=O)NCCCC[C@H](NC(=O)[C@H](Cc1ccc(O)cc1)NC(=O)[C@H](CC(=O)O)NC(=O)[C@H](CO)NC(=O)[C@@H](NC(=O)[C@H](Cc1ccccc1)NC(=O)[C@@H](NC(=O)CNC(=O)[C@H](CCC(N)=O)NC(=O)[C@H](CO)NC(=O)[C@@H](N)Cc1c[nH]cn1)[C@@H](C)O)[C@@H](C)O)C(=O)N[C@@H](CCCCN)C(=O)N[C@@H](Cc1ccc(O)cc1)C(=O)N[C@@H](CC(C)C)C(=O)N[C@@H](CC(=O)O)C(=O)N[C@@H](CO)C(=O)N[C@@H](CCCNC(=N)N)C(=O)N[C@@H](CCCNC(=N)N)C(=O)N[C@@H](C)C(=O)N[C@@H](CCC(N)=O)C(=O)N[C@@H](CC(=O)O)C(=O)N[C@@H](Cc1ccccc1)C(=O)N[C@H](C(=O)N[C@@H](CCC(N)=O)C(=O)N[C@@H](Cc1c[nH]c2ccccc12)C(=O)N[C@@H](CC(C)C)C(=O)N[C@H](C(=O)N[C@@H](C)C(=O)NCC(=O)NCC(N)=O)C(C)C)C(C)C)C(=O)O` [g716] (H-HSQGTFTSDYK([γGlu-Palmitoyl])KYLDSRRAQDFVQWLVAGG-NH2; N-terminus assumed): the results for the EC50 in assay [1], in assay [2] and in assay [3] were 11.8 nM, 2.46 nM and 12.9 nM, respectively.

On to `CCCCCCCCCCCCCCCC(=O)N[C@@H](CCC(=O)NCCCC[C@H](NC(=O)[C@H](CO)NC(=O)[C@H](CC(=O)O)NC(=O)[C@H](CC(C)C)NC(=O)[C@H](Cc1ccc(O)cc1)NC(=O)[C@H](CCC(=O)O)NC(=O)[C@H](CO)NC(=O)[C@H](Cc1ccc(O)cc1)NC(=O)[C@H](CC(=O)O)NC(=O)[C@H](CO)NC(=O)[C@@H](NC(=O)[C@H](Cc1ccccc1)NC(=O)[C@@H](NC(=O)CNC(=O)[C@H](CCC(N)=O)NC(=O)CNC(=O)[C@@H](N)Cc1c[nH]cn1)[C@@H](C)O)[C@@H](C)O)C(=O)N[C@@H](CCCNC(=N)N)C(=O)N[C@@H](C)C(=O)N[C@@H](CCCNC(=N)N)C(=O)N[C@@H](CC(=O)O)C(=O)N[C@@H](Cc1ccccc1)C(=O)N[C@H](C(=O)N[C@@H](C)C(=O)N[C@@H](Cc1c[nH]c2ccccc12)C(=O)N[C@@H](CC(C)C)C(=O)N[C@@H](CCC(=O)O)C(=O)N[C@@H](CCCNC(=N)N)C(=O)NCC(=O)NCC(N)=O)C(C)C)C(=O)O` [g721] (H-HGQGTFTSDYSEYLDSK([γGlu-Palmitoyl])RARDFVAWLERGG-NH2; N-terminus assumed), for which the results for the half-maximal effective concentration (EC50) in assay [1], in assay [2] and in assay [3] were 979 nM, 3.23 nM and 0.411 nM, respectively.

Regarding `CCCCCCCCCCCCCCCC(=O)N[C@@H](CCC(=O)NCCCC[C@H](NC(=O)[C@H](CO)NC(=O)[C@H](CC(=O)O)NC(=O)[C@H](CC(C)C)NC(=O)[C@H](Cc1ccc(O)cc1)NC(=O)[C@H](CCC(=O)O)NC(=O)[C@H](CO)NC(=O)[C@H](Cc1ccc(O)cc1)NC(=O)[C@H](CC(=O)O)NC(=O)[C@H](CO)NC(=O)[C@@H](NC(=O)[C@H](Cc1ccccc1)NC(=O)[C@@H](NC(=O)CNC(=O)[C@H](CCC(N)=O)NC(=O)CNC(=O)[C@@H](N)Cc1c[nH]cn1)[C@@H](C)O)[C@@H](C)O)C(=O)N[C@@H](CCCNC(=N)N)C(=O)N[C@@H](C)C(=O)N[C@@H](C)C(=O)N[C@@H](CC(=O)O)C(=O)N[C@@H](Cc1ccccc1)C(=O)N[C@H](C(=O)N[C@@H](C)C(=O)N[C@@H](Cc1c[nH]c2ccccc12)C(=O)N[C@@H](CC(C)C)C(=O)N[C@@H](CCC(=O)O)C(=O)N[C@@H](CCCNC(=N)N)C(=O)NCC(=O)NCC(N)=O)C(C)C)C(=O)O` [g722], the EC50 was 1670 nM in assay [1], 11.1 nM in assay [2] and 0.426 nM in assay [3].

On to `CCCCCCCCCCCCCCCC(=O)N[C@@H](CCC(=O)NCCCC[C@H](NC(=O)[C@H](CO)NC(=O)[C@H](CC(=O)O)NC(=O)[C@H](CC(C)C)NC(=O)[C@H](Cc1ccc(O)cc1)NC(=O)[C@H](CCC(=O)O)NC(=O)[C@H](CO)NC(=O)[C@H](Cc1ccc(O)cc1)NC(=O)[C@H](CC(=O)O)NC(=O)[C@H](CO)NC(=O)[C@@H](NC(=O)[C@H](Cc1ccccc1)NC(=O)[C@@H](NC(=O)CNC(=O)[C@H](CCC(N)=O)NC(=O)CNC(=O)[C@@H](N)Cc1c[nH]cn1)[C@@H](C)O)[C@@H](C)O)C(=O)N[C@@H](CCCNC(=N)N)C(=O)N[C@@H](C)C(=O)N[C@@H](CCCNC(=N)N)C(=O)N[C@@H](CC(=O)O)C(=O)N[C@@H](Cc1ccccc1)C(=O)N[C@H](C(=O)N[C@@H](CCC(=O)O)C(=O)N[C@@H](Cc1c[nH]c2ccccc12)C(=O)N[C@@H](CC(C)C)C(=O)N[C@@H](CCC(=O)O)C(=O)N[C@@H](CCCNC(=N)N)C(=O)NCC(=O)NCC(N)=O)C(C)C)C(=O)O` [g723], for which the half-maximal effective concentration (EC50) in assay [1] came out at 761 nM; in assay [2], 8.95 nM; in assay [3] it was 0.33 nM.

Consider `CCCCCCCCCCCCCCCC(=O)NCCCCCC(=O)NCCCC[C@H](NC(=O)[C@H](CO)NC(=O)[C@H](CC(=O)O)NC(=O)[C@H](CC(C)C)NC(=O)[C@H](Cc1ccc(O)cc1)NC(=O)[C@H](CCC(=O)O)NC(=O)[C@H](CO)NC(=O)[C@H](Cc1ccc(O)cc1)NC(=O)[C@H](CC(=O)O)NC(=O)[C@H](CO)NC(=O)[C@@H](NC(=O)[C@H](Cc1ccccc1)NC(=O)[C@@H](NC(=O)CNC(=O)[C@H](CCC(=O)O)NC(=O)CNC(=O)[C@@H](N)Cc1c[nH]cn1)[C@@H](C)O)[C@@H](C)O)C(=O)N[C@@H](CCCNC(=N)N)C(=O)N[C@@H](C)C(=O)N[C@@H](CCCNC(=N)N)C(=O)N[C@@H](CC(=O)O)C(=O)N[C@@H](Cc1ccccc1)C(=O)N[C@H](C(=O)N[C@@H](C)C(=O)N[C@@H](Cc1c[nH]c2ccccc12)C(=O)N[C@@H](CC(C)C)C(=O)N[C@@H](CCC(=O)O)C(=O)N[C@@H](CCCNC(=N)N)C(=O)NCC(=O)NCC(N)=O)C(C)C` [g724] (H-HGEGTFTSDYSEYLDSK([Ahx-Palmitoyl])RARDFVAWLERGG-NH2; N-terminus assumed), for which the EC50 came out at 933 nM in assay [1], 30.9 nM in assay [2] and 0.019 nM in assay [3].

For `CCCCCCCCCCCCCCCC(=O)NCCCCCC(=O)NCCCC[C@H](NC(=O)[C@H](CO)NC(=O)[C@H](CC(=O)O)NC(=O)[C@H](CC(C)C)NC(=O)[C@H](Cc1ccc(O)cc1)NC(=O)[C@H](CCC(=O)O)NC(=O)[C@H](CO)NC(=O)[C@H](Cc1ccc(O)cc1)NC(=O)[C@H](CC(=O)O)NC(=O)[C@H](CO)NC(=O)[C@@H](NC(=O)[C@H](Cc1ccccc1)NC(=O)[C@@H](NC(=O)CNC(=O)[C@H](CCC(=O)O)NC(=O)CNC(=O)[C@@H](N)Cc1c[nH]cn1)[C@@H](C)O)[C@@H](C)O)C(=O)N[C@@H](CCCNC(=N)N)C(=O)N[C@@H](C)C(=O)N[C@@H](C)C(=O)N[C@@H](CC(=O)O)C(=O)N[C@@H](Cc1ccccc1)C(=O)N[C@H](C(=O)N[C@@H](C)C(=O)N[C@@H](Cc1c[nH]c2ccccc12)C(=O)N[C@@H](CC(C)C)C(=O)N[C@@H](CCC(=O)O)C(=O)N[C@@H](CCCNC(=N)N)C(=O)NCC(=O)NCC(N)=O)C(C)C` [g725] (H-HGEGTFTSDYSEYLDSK([Ahx-Palmitoyl])RAADFVAWLERGG-NH2; N-terminus assumed), the EC50 stood at 1480 nM in assay [1], 59.9 nM in assay [2] and 0.0252 nM in assay [3].

For the molecule `CCCCCCCCCCCCCCCC(=O)NCCCCCC(=O)NCCCC[C@H](NC(=O)[C@H](CO)NC(=O)[C@H](CC(=O)O)NC(=O)[C@H](CC(C)C)NC(=O)[C@H](Cc1ccc(O)cc1)NC(=O)[C@H](CCC(=O)O)NC(=O)[C@H](CO)NC(=O)[C@H](Cc1ccc(O)cc1)NC(=O)[C@H](CC(=O)O)NC(=O)[C@H](CO)NC(=O)[C@@H](NC(=O)[C@H](Cc1ccccc1)NC(=O)[C@@H](NC(=O)CNC(=O)[C@H](CCC(=O)O)NC(=O)CNC(=O)[C@@H](N)Cc1c[nH]cn1)[C@@H](C)O)[C@@H](C)O)C(=O)N[C@@H](CCCNC(=N)N)C(=O)N[C@@H](C)C(=O)N[C@@H](CCCNC(=N)N)C(=O)N[C@@H](CC(=O)O)C(=O)N[C@@H](Cc1ccccc1)C(=O)N[C@H](C(=O)N[C@@H](CCC(=O)O)C(=O)N[C@@H](Cc1c[nH]c2ccccc12)C(=O)N[C@@H](CC(C)C)C(=O)N[C@@H](CCC(=O)O)C(=O)N[C@@H](CCCNC(=N)N)C(=O)NCC(=O)NCC(N)=O)C(C)C` [g726] (H-HGEGTFTSDYSEYLDSK([Ahx-Palmitoyl])RARDFVEWLERGG-NH2; N-terminus assumed), the EC50 in assay [1] amounted to 215 nM; in assay [2], 13.1 nM; in assay [3], 0.00791 nM.
